Source: US20100104644A1, “Compositions and Methods for Treating or Preventing Ophthalmic Disease” (University of Florida Research Foundation, Inc., priority 2006, published 2010)
“Also recorded” adds a separate entry of the source.

Experiments:
[1] = tested on: purified wild-type (WT) opsin; assay: Opsin regeneration: pigment formation of purified WT opsin with 11-cis-retinal in the presence of compound; format: biochemical; conditions: for inhibition of pigment formation / binding of 11-cis-retinal to opsin: in vitro
P23H opsin = assay: P23H yield in stable cells expressing opsin treated with compound; format: cell-based
Procedure: Stable cell lines expressing opsin protein were generated using the Flp-In T-Rex system. The stable cells were grown in DMEM high glucose media supplemented with 10% (v/v) fetal bovine serum, antibiotic/antimycotic solution, […] blasticidin and hygromycin at 37° C. in presence of 5% CO2. For all the experiments the cells were allowed to reach confluence and were induced to produce opsin with 1 μg/ml tetracycline after change of media and then compounds were added. The plates were incubated for 48 hours after which the cells were harvested.
Proteins were separated on SDS-PAGE gels and western blotted as described in Noorwez et al. (2004).

[2] = tested on: purified wt (wild-type) opsin; assay: 500 nm absorbing pigment formation on addition of compound alone to purified opsin; format: biochemical; conditions: compound added to purified WT opsin without 11-cis-retinal

Compound | % Increase in P23H Yield (P23H opsin; Table 1) [%] | % Increase in P23H Yield (P23H opsin; Table 2, with spread) [%] | also measured
CC(=O)c1c(C)n[nH]c1C [Compound 1, 1-(3,5-dimethyl-1H-pyrazol-4-yl)ethanone] | 31 | 30 ± 5 | inhibition of pigment formation of WT opsin with 11-cis-retinal ([1]; 2 mM and 5 mM concentrations): inhibited; inhibition of pigment formation / binding of 11-cis-retinal to opsin ([1]; listed as SN 10011): inhibits the binding of 11-cis-retinal to opsin in vitro; inhibition of pigment formation / binding of 11-cis-retinal to opsin ([1]; listed as SN10011): reversibly inhibits binding of 11-cis-retinal; also recorded: significant effect on inhibition of pigment formation; formation of 500 nm absorbing pigment by the compound with opsin ([2]; listed as SN10011): No pigment was formed; also recorded: no 500 nm absorbing pigment was generated
N#Cc1cn(Cc2ccco2)c(=O)[nH]c1=O [Compound 2, 1-furan-2-ylmethyl-2,4-dioxo-1,2,3,4-tetrahydro-pyrimidine-5-carbonitrile] | 43 | 40 ± 7 | –
O=[PH](O)c1ccccc1 [Compound 3, phenyl-phosphinic acid] | 32 | 40 ± 3 | –
Cc1cc([N+](=O)[O-])ccn1 [Compound 4, 2-methyl-4-nitro-pyridine] | 24 | 25 ± 8 | –
O=C1NC(CCO)C(=O)NC1CCO (stereo not shown) [Compound 5, 3,6-bis-(2-hydroxyethy)-piperazine-2,5-dione] | 15 | 30 ± 10 | –
CC(C)N(CC#N)C(C)C [Compound 6, diisopropylaminoacetonitrile] | 28 | 25 ± 3 | –
N#Cc1ccc2c(c1)OCO2 [Compound 27009, 3,4-Methylenedioxybenzonitrile] | – | 20 ± 5 | –
Cn1cc(C(N)=O)ccc1=N [Compound 66688, 6-imino-1-methyl-1,6-dihydro-3-pyridinecarboxamine] | – | 40 ± 9 | –
Nn1nnc2ccccc21 [Compound 114498, 1H-1,2,3-benzotriazol-1-amine] | – | 30 ± 6 | –
Oc1ccccc1C=Nn1cnnc1 [Compound 121968, 4-Salicylideneamino-1,2,4-triazol] | – | 29 ± 5 | –
CC(=O)/C=C/C1=C(C)CCCC1(C)C [β-ionone, reference compound] | – | – | inhibition of pigment formation / binding of 11-cis-retinal to opsin [1]: inhibit binding of retinal to the site; also recorded: inhibited opsin regeneration in a dose dependent manner; formation of 500 nm absorbing pigment by the compound with opsin [2]: does not form a light absorbing pigment with opsin; also recorded: does not itself form a 500 nm absorbing pigment with opsin; also recorded: no 500 nm absorbing pigment was formed
